Assay results taken from patent publication US10653780B2, “Amino lipids and methods for the delivery of nucleic acids” (ARBUTUS BIOPHARMA CORPORATION, priority 2008, dated 2020).
Several values for one entry are separate records, joined by “and”; a condition that tells them apart may be missing. Equal values may be shown once. Read-outs that look alike come from different tables or passages of the source.

Columns and labels:
Factor VII (FVII) = conditions: for FVII ED50: Table 11
Source text: It is well established that in vivo RNAi silencing of specific hepatocyte proteins can be achieved following intravenous (i.v.) administration of siRNA's encapsulated in, or associated with, select nanoparticles designed for intracellular delivery. […] In this Example, rational design in combination with in vivo screening were applied to systematically modify the structure of DLinDMA and identify molecular features that enhance or reduce cationic lipid potency. More than 30 lipids were synthesized and incorporated into nucleic acid-lipid particles, i.e., lipid nanoparticles (LN) encapsulating an siRNA (LN-siRNA) targeting Factor VII (FVII), a blood clotting component synthesized and secreted by hepatocytes that is readily measured in serum. LN-siRNA systems were prepared using the same process, lipid molar ratios and particle size to minimize effects on activity resulting from formulation characteristics other than the cationic lipid. Each formulation was administered as a single bolus injection over a range of doses enabling an estimate of the siRNA dose required to reduce FVII serum protein concentrations by 50% after 24 h (ED50).
FVII activity was evaluated in FVII siRNA-treated animals at 24 hours after intravenous (bolus) injection in C57BL/6 mice or 48 hours after intravenous (bolus) injection in SD rats. Six to 8 week old, female C57Bl/6 mice were obtained from Charles River Laboratories and acclimated for one week prior to use in studies. Animals were held in a pathogen-free environment and all procedures involving animals were performed in accordance with the guidelines established by the Canadian Council on Animal Care.
LN-siRNA systems containing Factor VII siRNA were diluted to the appropriate concentrations in sterile phosphate buffered saline immediately prior to use, and the formulations were administered intravenously via the lateral tail vein in a total volume of 10 ml/kg. After 24 h, animals were anaesthetised with Ketamine/Xylazine and blood was collected by cardiac puncture and processed to serum (Microtainer Serum Separator Tubes; Becton Dickinson, Franklin Lakes, N.J., USA). Serum was tested immediately or stored at −70° C. for later analysis for serum Factor VII levels.
FVII was measured using a commercially available kit (Biophen FVII Kit™; Aniara Corp., Mason, Ohio), following the manufacturer's instructions at a microplate scale. FVII reduction was determined against untreated control animals, and the results were expressed as % Residual FVII. Five dose levels (0.1, 0.3, 0.5, 1.0, and 3.0 mg/kg) were typically used.
Serum Factor VII levels were determined using the colorimetric Biophen VII assay kit (Anaira, USA). Briefly, serially diluted pooled control serum (200%-3.125%) and appropriately diluted plasma samples from treated animals were analyzed using the Biophen VII kit according to manufacturer's instructions in 96-well, flat bottom, non-binding polystyrene assay plates (Corning, Corning, N.Y.) and absorbance at 405 nm was measured. A calibration curve was generated using the serial diluted control serum and used to determine levels of Factor VII in serum from treated animals.
Initial studies were performed in eight to 10 week old, female C57BL/6 mice in two stages. In the first stage, the activity associated with the benchmark lipid DLinDMA was compared to the activity associated with modified forms of DLinDMA.

[1] = Pharmacokinetic and liver analysis of Cy-3 labeled siRNA in LN-siRNA systems; type: in vivo
Source text: A fluorescently labeled siRNA (Cy-3 labeled luciferase siRNA, Alnylam Pharmaceuticals) was used to measure the siRNA content in plasma and liver after iv administration of LN-siRNA systems. The measurements were done by first extracting the Cy3-siRNA from the protein-containing biological matrix and then analyzing the amount of Cy-3 label in the extract by fluorescence. Two extraction methods were used, a chloroform/methanol mixture for the plasma samples and a commercial phenol/chloroform mixture (Trizol® reagent) with the tissue samples.
For plasma, blood was collected in EDTA-containing Vacutainer tubes and centrifuged at 1000×g for 10 min at 4-8° C. to isolate the plasma. The plasma was transferred to an eppendorf tube and either assayed immediately or stored in a −30° C. freezer. An aliquot of the plasma (100 μL maximum) was diluted to 500 μL with PBS (145 mM NaCl, 10 mM phosphate, pH 7.5), methanol (1.05 mL and chloroform (0.5 mL) was added, and the sample vortexed to obtain a clear, single phase solution. Water (0.5 mL) and chloroform (0.5 mL) was then added and the resulting emulsion sustained by mixing periodically for a minimum of 3 minutes. The mixture was centrifuged at 3000 rpm for 20 minutes and the top aqueous phase containing the Cy-3-label transferred to a new test tube. The fluorescence of the solution was measured using an SLM Fluorimeter at an excitation wavelength of 550 nm (2 nm bandwidth) and emission wavelength of 600 nm (16 nm bandwidth). A standard curve was generated by spiking aliquots of plasma from untreated animals with the Cy-3-siRNA containing formulation (0 to 15 μg/mL), and the sample processed as indicated above.
For liver, sections (400-500 mg) of tissue from saline-perfused animals was accurately weighed and homogenized in 1 mL of Trizol using Fastprep tubes. An aliquot of the homogenate (typically equivalent to 50 mg of tissue) was transferred to an eppendorf tube and additional Trizol added to 1 mL final. Chloroform (0.2 mL) was added, and the solution was mixed and incubated for 2-3 min before being centrifuged for 15 min at 12,000×g. An aliquot (0.5 mL) of the top Cy-3-containing aqueous phase was diluted with 0.5 mL of PBS and the fluorescence of the sample measured as described above.
The correlation between levels of siRNA delivered to the liver and FVII reduction was determined by encapsulating Cy-3 labeled siRNA in the selection of LN-siRNA systems covering a spectrum of in vivo activities shown in Table 8. Cy-3 fluorescence was measured in plasma and liver tissue 0.5 and 3.0 h post injection.

[2] = Bilayer-to-hexagonal HII transition temperature (TBH) in equimolar mixtures with DSPS; type: physicochemical; conditions: equimolar with DSPS, pH 4.8; 31P NMR and DSC
Source text: Both techniques gave similar results.

[3] = In situ determination of apparent pKa using TNS fluorescence titration
Source text: In situ pKa measurements were made using the pH sensitive fluorescent probe TNS, using a modification of the approach previously published in Bailey, A. L. and Cullis, P. R., Biochemistry 33:12573-12580 (1994).
Titrations of surface charge as a function of pH can then be used to determine the apparent pKa (hereafter referred to as pKa) of constituent lipids (Cullis, P. R., et al., Chem Phys Lipids 40:127-144 (1986)).

[4] = Tolerability of DLin-K-DMA-containing LN-siRNA systems in mice at extreme doses
Experimental: The tolerability of empty DLin-K-C2-DMA lipid particles (DLin-K-C2-DMA/DSPC/Chol/PEG-C-DOMG (40/10/40/10)) was evaluated by monitoring weight change, cageside observations, clinical chemistry and, in some instances, hematology in femal Sprague Dawley rats and female C57BL/6 mice. Animal weights were recorded prior to treatment and at 24 hours after intravenous treatment with various dosages. Data was recorded as % Change in Body Weight. In addition to body weight measurements, clinical chemistry panel, including liver function markers, was obtained at each dose level at 24 hours post-injection using an aliquot of the serum collected for FVII analysis. […] In some instances, additional animals were included in the treatment group to allow collection of whole blood for hematology analysis.
The toxicity criteria measured were % change in body weight and serum levels of the liver enzyme markers, ALT and AST.

[5] = Table 4, siRNA dose reducing serum FVII protein by 50% at 24 h, PFV LN-siRNA 40/10/40/10
[6] = Table 8, FVII ED50 of the LN-siRNA system
[7] = siRNA dose reducing serum FVII protein by 50% at 24 h, PFV LN-siRNA 40/10/40/10
[8] = Table 6, siRNA dose reducing serum FVII protein by 50% at 24 h, PFV LN-siRNA 40/10/40/10
[9] = siRNA 0-10 mg/kg, total lipid 0-164 mg/kg
[10] = siRNA 46 mg/kg, total lipid 750 mg/kg
[11] = siRNA 61 mg/kg, total lipid 1000 mg/kg
[12] = siRNA 76 mg/kg, total lipid 1250 mg/kg
[13] = siRNA 92 mg/kg, total lipid 1500 mg/kg

1,2-Dilinoleoyl-3-dimethylaminopropane [DLinDAP]
ED50 (Factor VII (FVII); [5]): 40 to 50 mg/kg
ED50 (Factor VII (FVII); [6]): 12 to 25 mg/kg
FVII ED50 (Factor VII (FVII)): >25 mg/kg
ED50 (Factor VII (FVII); [7]): 12 to 25 mg/kg
Liver Cy-3 siRNA ([1]; 0.5 h post injection): 20.5 % injected dose
Plasma Cy-3 siRNA ([1]; 0.5 h post injection): 46.6 % injected dose
Liver Cy-3 siRNA ([1]; 3.0 h post injection): 16.5 % injected dose
Plasma Cy-3 siRNA ([1]; 3.0 h post injection): 3.3 % injected dose
HII transition temperature [2]: 26 °C
Apparent pKa ([3]; in situ in preformed vesicles, TNS fluorescence titration, Table 11): 5.7

CCCCC/C=C\C/C=C\CCCCCCCCC1(CCCCCCCC/C=C\C/C=C\CCCCC)OCC(CN(C)C)O1 (racemic) [DLin-K-DMA, 2,2-Dilinoleyl-4-dimethylaminomethyl-[1,3]-dioxolane]
ED50 (Factor VII (FVII); [5]): ~0.4 mg/kg
ED50 (Factor VII (FVII); [8]): ~0.4 mg/kg
ED50 (Factor VII (FVII); Table 7, siRNA dose reducing serum FVII protein by 50% at 24 h, PFV LN-siRNA 40/10/40/10): ~1 mg/kg
ED50 (Factor VII (FVII); [6]): 0.3 mg/kg
FVII ED50 (Factor VII (FVII)): ~0.4 mg/kg
FVII ED50 (Factor VII (FVII); listed as DLin-K-DMA (racemic mixture)): ~0.3 mg/kg
fold more potent than the DLinDMA benchmark (Factor VII (FVII); reducing serum FVII protein, mouse, head-to-head): ~2.5 fold
ED50 (Factor VII (FVII); [7]): ~0.4 mg/kg
ED50 (Factor VII (FVII); siRNA dose reducing serum FVII protein by 50% at 24 h, PFV LN-siRNA 40/10/40/10, listed as DLin-K-DMA racemic mixture): ~0.3 mg/kg
HII transition temperature [2]: 19 °C
pKa [3]: 5.6
siRNA dose up to which no changes in blood chemistry or body weight were observed ([4]; compared to saline controls, mice): 10 mg/kg
body weight lost ([4]; maximum dose 92 mg siRNA/kg, 1500 mg total lipid/kg): 6%
siRNA dose exceeded before severe (>10-fold) ALT/AST increases are observed ([4]; mice): exceeded 61 mg/kg
% Change Body Weight [4, 9]: 0%
ALT [4, 9]: 45 IU/L
AST [4, 9]: 90 IU/L
% Change Body Weight [4, 10]: −5.0%
ALT [4, 10]: 174 IU/L
AST [4, 10]: 340 IU/L
increases in serum ALT and AST [4, 10]: < 10 fold normal
% Change Body Weight [4, 11]: −4.5%
ALT [4, 11]: 448 IU/L
AST [4, 11]: 816 IU/L
% Change Body Weight [4, 12]: −5.5%
ALT [4, 12]: 1771 IU/L
AST [4, 12]: 4723 IU/L
% Change Body Weight [4, 13]: −6.0%
ALT [4, 13]: 4723 IU/L
AST [4, 13]: 2094 IU/L
fold greater than the ED50 dose ([4]; siRNA dose of 10 mg/kg without changes): > 30 fold
fold more than the ED50 ([4]; siRNA dose of 46 mg/kg, first significant toxicity signs): 150 fold

CCCCC/C=C\C/C=C\CCCCCCCCC1(CCCCCCCC/C=C\C/C=C\CCCCC)OCC(CCCN(C)C)O1 (centres unmarked) [DLin-K-C3-DMA, 2,2-Dilinoleyl-4-(3-dimethylaminopropyl)-[1,3]-dioxolane]
ED50 (Factor VII (FVII); [8]): ~0.6 mg/kg
FVII ED50 (Factor VII (FVII)): ~0.6 mg/kg
ED50 (Factor VII (FVII); [7]): ~0.6 mg/kg
HII transition temperature [2]: 18 °C
pKa [3]: 6.8

CCCCC/C=C\C/C=C\CCCCCCCCC1(CCCCCCCC/C=C\C/C=C\CCCCC)OCC(CCCCN(C)C)O1 (centres unmarked) [DLin-K-C4-DMA, 2,2-Dilinoleyl-4-(4-dimethylaminobutyl)-[1,3]-dioxolane]
ED50 (Factor VII (FVII); [8]): >3 mg/kg
FVII ED50 (Factor VII (FVII)): >3.0 mg/kg
fold less active in vivo than DLin-K-C3-DMA (Factor VII (FVII); mouse, in vivo): more than 5 fold
ED50 (Factor VII (FVII); [7]): > 3 mg/kg
HII transition temperature [2]: 18 °C
pKa [3]: 6.8

CCCCC/C=C\C/C=C\CCCCCCCCC1(CCCCCCCC/C=C\C/C=C\CCCCC)OCC(CN2CCN(C)CC2)O1 (centres unmarked) [DLin-K-MPZ, 2,2-Dilinoleyl-4-N-methylpepiazino-[1,3]-dioxolane]
ED50 (Factor VII (FVII); [8]): ~1.5 mg/kg
FVII ED50 (Factor VII (FVII)): ~1.5 mg/kg
fold less active than DLin-K-DMA (Factor VII (FVII); mouse FVII model): approximately 5 fold
ED50 (Factor VII (FVII); [7]): ~1.5 mg/kg
pKa [3]: 6.2

CCCCC/C=C\C/C=C\CCCCCCCCOCC(CN(C)C)OCCCCCCCC/C=C\C/C=C\CCCCC (centres unmarked) [DLinDMA, 1,2-Dilinoleyloxy-3-dimethylaminopropane, reference compound]
ED50 (Factor VII (FVII); Table 3, siRNA dose reducing serum FVII protein by 50% at 24 h, single i.v. bolus, PFV LN-siRNA 40/10/40/10): ~1 mg/kg
ED50 (Factor VII (FVII); [5]): ~1 mg/kg
ED50 (Factor VII (FVII); Table 5, siRNA dose reducing serum FVII protein by 50% at 24 h, PFV LN-siRNA 40/10/40/10): ~1 mg/kg
ED50 (Factor VII (FVII); [6]): 1.0 mg/kg
FVII ED50 (Factor VII (FVII)): ~1.0 mg/kg
ED50 (Factor VII (FVII); [7]): ~1.0 mg/kg and 1 mg/kg
HII transition temperature [2]: 27 °C
pKa [3]: 6.4
molecules charged ([3]; at pH 7.4): 5-10%
pKa ([3]; nucleic acid-lipid particles containing the cationic lipid): 6.4
